According to patent US9260425B2 (Genetech, Inc., priority 2011, dated 2016):

biological target: Pim-1 (Homo sapiens (Human), UniProt P11309); experiment: Pim kinase binding activity assay (Example 901), PIM-1 enzyme, Caliper microfluidic peptide phosphorylation; assay type: biochemical; conditions: 20 pM PIM-1, 10 μM ATP, 1 μM FAM-peptide, 90 minutes at room temperature
Method in brief: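 PIM-1 at 20 pM phosphorylated 1 μM FAM-labelled Pim peptide with 10 μM ATP in HEPES pH 7.2, MgCl2, Tween 20 and DTT for 90 min at room temperature. EDTA stopped the reaction, and product and substrate were resolved by microfluidic electrophoresis (ex 488/em 530 nm). Ki was derived from substrate conversion.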

Chain of Pim-1 (P11309 whole entry): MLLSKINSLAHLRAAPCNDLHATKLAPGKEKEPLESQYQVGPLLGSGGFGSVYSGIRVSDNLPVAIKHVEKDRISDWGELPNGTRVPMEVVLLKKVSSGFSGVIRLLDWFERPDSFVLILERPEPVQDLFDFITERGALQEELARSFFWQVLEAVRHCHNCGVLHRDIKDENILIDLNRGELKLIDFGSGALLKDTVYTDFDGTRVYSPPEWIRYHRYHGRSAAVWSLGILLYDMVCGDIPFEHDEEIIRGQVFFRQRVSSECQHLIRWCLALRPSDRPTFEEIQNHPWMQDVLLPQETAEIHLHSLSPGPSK

| Compound | Ki |
| --- | --- |
| CCn1cc(-c2cc3c(-c4cc(C5CC5)ccn4)n[nH]c3cn2)cn1 [Example 484, 3-(4-cyclopropylpyridin-2-yl)-5-(1-ethyl-1H-pyrazol-4-yl)-1H-pyrazolo[3,4-c]pyridine] | 11.5 nM |
| CCn1cc(-c2cc3c(-c4cccc(N5CCNC(C(F)(F)F)CC5)n4)n[nH]c3cn2)cn1 (stereo not shown) [Example 491, 5-(1-ethyl-1H-pyrazol-4-yl)-3-(6-(5-(trifluoromethyl)-1,4-diazepan-1-yl)pyridin-2-yl)-1H-pyrazolo[3,4-c]pyridine] | 0.181 nM |
| CCn1cc(-c2cc3c(-c4ccc(C(C)C)c(N5CCC[C@H](N)C5)n4)n[nH]c3cn2)cn1 [Example 478, (S)-1-(6-(5-(1-ethyl-1H-pyrazol-4-yl)-1H-pyrazolo[3,4-c]pyridin-3-yl)-3-isopropylpyridin-2-yl)piperidin-3-amine] | 0.02 nM |
| OC1(c2cccc(-c3n[nH]c4cnc(-c5cccnc5)cc34)n2)CCNCC1 [Example 422, 4-(6-(5-(pyridin-3-yl)-1H-pyrazolo[3,4-c]pyridin-3-yl)pyridin-2-yl)piperidin-4-ol] | 300 nM |
| Fc1ccccc1-c1n[nH]c2cnc(-c3cnccc3OC3CNC3)cc12 [Example 198, 5-(4-(azetidin-3-yloxy)pyridin-3-yl)-3-(2-fluorophenyl)-1H-pyrazolo[3,4-c]pyridine] | 3.12 nM |
| Cn1cc(-c2cc3c(-c4cccc(NCC(C)(C)O)n4)n[nH]c3cn2)cn1 [Example 297, 2-methyl-1-(6-(5-(1-methyl-1H-pyrazol-4-yl)-1H-pyrazolo[3,4-c]pyridin-3-yl)pyridin-2-ylamino)propan-2-ol] | 0.034 nM |
| CCn1cc(-c2cc3c(-c4cccc(N5CCC[C@](C)(O)C5)n4)n[nH]c3cn2)cn1 [Example 464, (S)-1-(6-(5-(1-ethyl-1H-pyrazol-4-yl)-1H-pyrazolo[3,4-c]pyridin-3-yl)pyridine-2-yl)-3-methylpiperidin-3-ol] | 0.0721 nM |
| CCn1cc(-c2cc3c(-c4cccc(NC5CCCCNC5)n4)n[nH]c3cn2)cn1 (stereo not shown) [Example 513, N-(6-(5-(1-ethyl-1H-pyrazol-4-yl)-1H-pyrazolo[3,4-c]pyridin-3-yl)pyridin-2-yl)azepan-3-amine] | 0.055 nM |
| CCn1cc(-c2cc3c(-c4cccc(N5CCNCC(F)(F)C5)n4)n[nH]c3cn2)cn1 [Example 447, 3-(6-(6,6-difluoro-1,4-diazepan-1-yl)pyridin-2-yl)-5-(1-ethyl-1H-pyrazol-4-yl)-1H-pyrazolo[3,4-c]pyridine] | 0.029 nM |
| N[C@H]1CCCN(c2nc(-c3n[nH]c4cnc(-c5cccnc5)cc34)ccc2Br)C1 [Example 289, (S)-1-(3-bromo-6-(5-(pyridin-3-yl)-1H-pyrazolo[3,4-c]pyridin-3-yl)pyridin-2-yl)piperidin-3-amine] | 0.017 nM |
| Cc1ccc(-c2n[nH]c3cnc(-c4cnn(C)c4)cc23)nc1N1CCC[C@H](N)C1 [Example 433, (S)-1-(3-methyl-6-(5-(1-methyl-1H-pyrazol-4-yl)-1H-pyrazolo[3,4-c]pyridin-3-yl)pyridin-2-yl)piperidin-3-amine] | 0.013 nM |
| c1cc(-c2n[nH]c3cnc(-n4ccnc4)cc23)nc(N2CCNCC2)c1 [Example 368, 5-(1H-imidazol-1-yl)-3-(6-(piperazin-1-yl)pyridin-2-yl)-1H-pyrazolo[3,4-c]pyridine] | 1.82 nM |
| c1cncc(-c2cc3c(C4CCCC4)n[nH]c3cn2)c1 [Example 228, 3-cyclopentyl-5-(pyridin-3-yl)-1H-pyrazolo[3,4-c]pyridine] | 43 nM |
| CN1CC(c2cc3c(-c4ccccc4)n[nH]c3cn2)CC1=O (stereo not shown) [Example 263, 1-methyl-4-(3-phenyl-1H-pyrazolo[3,4-c]pyridin-5-yl)pyrrolidin-2-one] | 241 nM |
| NCC[C@H]1CCCN(c2cccc(-c3n[nH]c4cnc(-c5cccnc5)cc34)n2)C1 [Example 237, (R)-2-(1-(6-(5-(pyridin-3-yl)-1H-pyrazolo[3,4-c]pyridin-3-yl)pyridin-2-yl)piperidin-3-yl)ethanamine] | 0.042 nM |
| C1=C(c2n[nH]c3cnc(-c4cccnc4)cc23)CCC1 [Example 225, 3-cyclopentenyl-5-(pyridin-3-yl)-1H-pyrazolo[3,4-c]pyridine] | 2.83 nM |
| N[C@H]1CCCN(c2nc(-c3n[nH]c4cnc(-c5cccnc5)cc34)ccc2Cl)C1 [Example 265, (S)-1-(3-chloro-6-(5-(pyridin-3-yl)-1H-pyrazolo[3,4-c]pyridin-3-yl)pyridin-2-yl)piperidin-3-amine] | 0.019 nM |
| Cc1ccc(-c2n[nH]c3cnc(-c4cccnc4)cc23)nc1N1CCN(C)CC1 [Example 257, 3-(5-methyl-6-(4-methylpiperazin-1-yl)pyridin-2-yl)-5-(pyridin-3-yl)-1H-pyrazolo[3,4-c]pyridine] | 0.032 nM |
| N#Cc1cc2c(-c3cccc(N4CCC[C@@H](N)C4)n3)n[nH]c2cn1 [Example 398, (R)-3-(6-(3-aminopiperidin-1-yl)pyridin-2-yl)-1H-pyrazolo[3,4-c]pyridine-5-carbonitrile] | 39.1 nM |
| CCn1cc(-c2cc3c(-c4cccc(N5CCCCC(O)C5)n4)n[nH]c3cn2)cn1 (stereo not shown) [Example 494, 1-(6-(5-(1-ethyl-1H-pyrazol-4-yl)-1H-pyrazolo[3,4-c]pyridin-3-yl)pyridin-2-yl)azepan-3-ol] | 0.122 nM |
| N#Cc1cc2c(-c3cccc(N4CCNCC4)n3)n[nH]c2cn1 [Example 400, 3-(6-(piperazin-1-yl)pyridin-2-yl)-1H-pyrazolo[3,4-c]pyridine-5-carbonitrile] | 51.1 nM |
| FCCn1cc(-c2cc3c(-c4cccc(N5CCNCC5)n4)n[nH]c3cn2)cn1 [Example 391, 5-(1-(2-fluoroethyl)-1H-pyrazol-4-yl)-3-(6-(piperazin-1-yl)pyridin-2-yl)-1H-pyrazolo[3,4-c]pyridine] | 0.108 nM |
| CC(C)(C)n1cc(-c2cc3c(-c4cccc(N5CCNCC5)n4)n[nH]c3cn2)cn1 [Example 448, 5-(1-tert-butyl-1H-pyrazol-4-yl)-3-(6-(piperazin-1-yl)pyridin-2-yl)-1H-pyrazolo[3,4-c]pyridine] | 0.376 nM |
| c1cncc(-c2cc3c(CNCC4CCNCC4)n[nH]c3cn2)c1 [Example 113, 1-(piperidin-4-yl)-N-((5-(pyridin-3-yl)-1H-pyrazolo[3,4-c]pyridin-3-yl)methyl)methanamine] | 3200 nM |
| Fc1ccc(-c2cc3c(-c4cccc(N5CCNCC5)n4)n[nH]c3cn2)cn1 [Example 378, 5-(6-fluoropyridin-3-yl)-3-(6-(piperazin-1-yl)pyridin-2-yl)-1H-pyrazolo[3,4-c]pyridine] | 0.796 nM |
| N[C@H]1CCCN(Cc2n[nH]c3cnc(-c4cccnc4)cc23)C1 [Example 104, (S)-1-((5-(pyridin-3-yl)-1H-pyrazolo[3,4-c]pyridin-3-yl)methyl)piperidin-3-amine] | 3000 nM |
| N[C@H]1CCCN(Cc2n[nH]c3cnc(-c4cn[nH]c4)cc23)C1 [Example 107, (S)-1-((5-(1H-pyrazol-4-yl)-1H-pyrazolo[3,4-c]pyridin-3-yl)methyl)piperidin-3-amine] | 3000 nM |
| CC(C)n1cc(-c2cc3c(-c4cccc(N5CCNCC5)n4)n[nH]c3cn2)cn1 [Example 389, 5-(1-isopropyl-1H-pyrazol-4-yl)-3-(6-(piperazin-1-yl)pyridin-2-yl)-1H-pyrazolo[3,4-c]pyridine] | 0.213 nM |
